Assay results as given in ChEMBL document CHEMBL5360532, “Current scenario of quinolone hybrids with potential antibacterial activity against ESKAPE pathogens” (Eur J Med Chem, 2023).
Converted amounts (≈) assume the structure as drawn. One block for each compound: values may come before it.

Key:
Format in all cases: functional
Escherichia coli [1] = assay: Antibacterial activity against Escherichia coli assessed as bacterial growth inhibition measured after 18 to 24 hrs by two fold serial dilution assay; details: time 18-24 hrs
Pseudomonas aeruginosa [2] = assay: Antibacterial activity against Pseudomonas aeruginosa assessed as bacterial growth inhibition measured after 18 to 24 hrs by two fold serial dilution assay; details: time 18-24 hrs
Staphylococcus aureus [3] = assay: Antibacterial activity against methicillin sensitive Staphylococcus aureus assessed as bacterial growth inhibition measured after 18 to 24 hrs by two fold serial dilution assay; details: time 18-24 hrs
Escherichia coli [4] = assay: Antibacterial activity against Escherichia coli ATCC35218 assessed as bacterial growth inhibition measured after 18 to 24 hrs inhibition by broth microdilution assay; details: time 18-24 hrs
Pseudomonas aeruginosa [5] = assay: Antibacterial activity against Pseudomonas aeruginosa assessed as bacterial growth inhibition by broth microdilution assay
Klebsiella pneumoniae [6] = assay: Antibacterial activity against Klebsiella pneumoniae assessed as bacterial growth inhibition measured after 18 to 24 hrs by two fold serial dilution assay; details: time 18-24 hrs
Staphylococcus aureus [7] = assay: Antibacterial activity against Staphylococcus aureus ATCC 29213 assessed as bacterial growth inhibition by broth microdilution assay
Staphylococcus aureus [8] = assay: Antibacterial activity against methicillin resistant Staphylococcus aureus assessed as bacterial growth inhibition by agar dilution assay
Klebsiella pneumoniae [9] = assay: Antibacterial activity against Klebsiella pneumoniae assessed as bacterial growth inhibition by agar dilution assay
Staphylococcus aureus [10] = assay: Antibacterial activity against Staphylococcus aureus assessed as bacterial growth inhibition by agar dilution assay
Escherichia coli [11] = assay: Antibacterial activity against Escherichia coli ATCC 25922 assessed as bacterial growth inhibition by agar dilution assay
Acinetobacter baumannii = assay: Antibacterial activity against Acinetobacter baumannii assessed as bacterial growth inhibition by agar dilution assay
Staphylococcus aureus [12] = assay: Antibacterial activity against Staphylococcus aureus ATCC 25923 assessed as bacterial growth inhibition by agar dilution assay
Pseudomonas aeruginosa [13] = assay: Antibacterial activity against Pseudomonas aeruginosa ATCC 27853 assessed as bacterial growth inhibition by agar dilution assay
Staphylococcus aureus [14] = assay: Antibacterial activity against Staphylococcus aureus ATCC 29213 assessed as bacterial growth inhibition by agar dilution assay
Staphylococcus aureus [15] = assay: Antibacterial activity against clinical isolate erythromycin/methicillin resistant Staphylococcus aureus NRS 70 assessed as bacterial growth inhibition measured after 16 to 18 hrs by serial dilution method; details: time 16-18 hrs
Staphylococcus aureus [16] = assay: Antibacterial activity against methicillin resistant Staphylococcus aureus ATCC 43300 assessed as bacterial growth inhibition measured after 16 to 18 hrs by serial dilution method; details: time 16-18 hrs
Staphylococcus aureus [17] = assay: Antibacterial activity against clinical isolate linezolid/methicillin resistant Staphylococcus aureus NRS 271 assessed as bacterial growth inhibition measured after 16 to 18 hrs by serial dilution method; details: time 16-18 hrs
Staphylococcus aureus [18] = assay: Antibacterial activity against clinical isolate oxacillin/tetracycline/methicillin resistant Staphylococcus aureus NRS 100 assessed as bacterial growth inhibition measured after 16 to 18 hrs by serial dilution method; details: time 16-18 hrs
Staphylococcus aureus [19] = assay: Antibacterial activity against clinical isolate gentamycin/methicillin resistant Staphylococcus aureus NRS 108 assessed as bacterial growth inhibition measured after 16 to 18 hrs by serial dilution method; details: time 16-18 hrs
Staphylococcus aureus [20] = assay: Antibacterial activity against fluoroquinolone/methicillin resistant Staphylococcus aureus clinical isolate 19-26 assessed as bacterial growth inhibition measured after 16 to 18 hrs by serial dilution method; details: time 16-18 hrs
Staphylococcus aureus [21] = assay: Antibacterial activity against vancomycin-intermediate methicillin resistant Staphylococcus aureus ATCC 700699 assessed as bacterial growth inhibition measured after 16 to 18 hrs by serial dilution method; details: time 16-18 hrs
Staphylococcus aureus [22] = assay: Antibacterial activity against clinical isolate aminoglycosides/tetracycline/methicillin resistant Staphylococcus aureus NRS 1 assessed as bacterial growth inhibition measured after 16 to 18 hrs by serial dilution method; details: time 16-18 hrs
Staphylococcus aureus [23] = assay: Antibacterial activity against Staphylococcus aureus Newman assessed as bacterial growth inhibition measured after 16 to 18 hrs by serial dilution method; details: time 16-18 hrs
Staphylococcus aureus [24] = assay: Antibacterial activity against fluoroquinolone/methicillin resistant Staphylococcus aureus clinical isolate 19-27 assessed as bacterial growth inhibition measured after 16 to 18 hrs by serial dilution method; details: time 16-18 hrs
Staphylococcus aureus [25] = assay: Antibacterial activity against methicillin resistant Staphylococcus aureus ATCC 33591 assessed as bacterial growth inhibition measured after 16 to 18 hrs by serial dilution method; details: time 16-18 hrs
Staphylococcus aureus [26] = assay: Antibacterial activity against fluoroquinolone/methicillin resistant Staphylococcus aureus clinical isolate 19-25 assessed as bacterial growth inhibition measured after 16 to 18 hrs by serial dilution method; details: time 16-18 hrs
Escherichia coli [27] = assay: Antibacterial activity against Escherichia coli assessed as bacterial growth inhibition measured after 20 hrs by serial dilution method
Klebsiella pneumoniae [28] = assay: Antibacterial activity against Klebsiella pneumoniae assessed as bacterial growth inhibition measured after 20 hrs by serial dilution method
Pseudomonas aeruginosa [29] = assay: Antibacterial activity against Pseudomonas aeruginosa assessed as bacterial growth inhibition measured after 20 hrs by serial dilution method
Staphylococcus aureus [30] = assay: Antibacterial activity against Staphylococcus aureus assessed as bacterial growth inhibition measured after 20 hrs by serial dilution method
Enterobacter cloacae = assay: Antibacterial activity against Enterobacter cloacae PTCC 1003 assessed as bacterial growth inhibition by agar dilution method
Staphylococcus aureus [31] = assay: Antibacterial activity against Staphylococcus aureus ATCC 6538p assessed as bacterial growth inhibition by agar dilution method
Bacillus subtilis = assay: Antibacterial activity against Bacillus subtilis PTCC 1023 assessed as bacterial growth inhibition by agar dilution method
Escherichia coli [32] = assay: Antibacterial activity against Escherichia coli ATCC 8739 assessed as bacterial growth inhibition by agar dilution method
Klebsiella pneumoniae [33] = assay: Antibacterial activity against Klebsiella pneumoniae ATCC 10031 assessed as bacterial growth inhibition by agar dilution method
[34] = test system: Staphylococcus epidermidis; assay: Antibacterial activity against Staphylococcus epidermidis ATCC 12228 assessed as bacterial growth inhibition by agar dilution method
Staphylococcus aureus [35] = assay: Antibacterial activity against Staphylococcus aureus assessed as bacterial growth inhibition measured after 24 hrs by agar cup diffusion assay
Pseudomonas aeruginosa [36] = assay: Antibacterial activity against Pseudomonas aeruginosa assessed as bacterial growth inhibition measured after 24 hrs by agar cup diffusion assay
Escherichia coli [37] = assay: Antibacterial activity against Escherichia coli assessed as bacterial growth inhibition measured after 24 hrs by agar cup diffusion assay
Candida albicans = assay: Antifungal activity against Candida albicans assessed as fungal growth inhibition measured after 24 hrs by agar cup diffusion assay
Escherichia coli [38] = assay: Antibacterial activity against Escherichia coli ATCC 25922 assessed as bacterial growth inhibition by agar disc diffusion assay
Escherichia coli [39] = assay: Antibacterial activity against Escherichia coli clinical isolate 1 assessed as bacterial growth inhibition by agar disc diffusion assay
Staphylococcus aureus [40] = assay: Antibacterial activity against Staphylococcus aureus ATCC 25923 assessed as bacterial growth inhibition by agar disc diffusion assay
Pseudomonas aeruginosa [41] = assay: Antibacterial activity against Pseudomonas aeruginosa clinical isolate 1 assessed as bacterial growth inhibition by agar disc diffusion assay
[42] = test system: Fusarium oxysporum f. sp. lycopersici; assay: Antifungal activity against Fusarium oxysporum f. sp. lycopersici assessed as fungal growth inhibition measured after 7 days by agar disc diffusion assay; details: 168 h, time 7 day
Staphylococcus aureus [43] = assay: Antibacterial activity against Staphylococcus aureus clinical isolate 1 assessed as bacterial growth inhibition by agar disc diffusion assay
Pseudomonas aeruginosa [44] = assay: Antibacterial activity against Pseudomonas aeruginosa ATCC 27853 assessed as bacterial growth inhibition by agar disc diffusion assay
Alternaria = assay: Antifungal activity against Alternaria assessed as fungal growth inhibition measured after 7 days by agar disc diffusion assay; details: 168 h, time 7 day

SMILES: COc1c(N2C[C@H]3CCCN(C(=O)Cn4cc(CN5C(=O)C(=O)c6ccccc65)nn4)[C@H]3C2)c(F)cc2c(=O)c(C(=O)O)cn(C3CC3)c12
MIC (Escherichia coli [1]): ≤ 0.03 µg/mL
MIC (Pseudomonas aeruginosa [2]): ≤ 0.03 µg/mL
MIC (Staphylococcus aureus [3]): ≤ 0.03 µg/mL
MIC (Escherichia coli [4]): ≤ 0.03 µg/mL
MIC (Pseudomonas aeruginosa [5]): ≤ 0.03 µg/mL
MIC (Klebsiella pneumoniae [6]): ≤ 0.03 µg/mL

SMILES: O=C1C(=O)N(Cc2cn(CC(=O)N3CCN(c4cc5c(cc4F)c(=O)c(C(=O)O)cn5C4CC4)CC3)nn2)c2ccc(F)cc21
MIC (Escherichia coli [1]): ≤ 0.03 µg/mL
MIC (Pseudomonas aeruginosa [2]): ≤ 0.03 µg/mL
MIC (Staphylococcus aureus [3]): ≤ 0.03 µg/mL
MIC (Escherichia coli [4]): ≤ 0.03 µg/mL
MIC (Pseudomonas aeruginosa [5]): ≤ 0.03 µg/mL
MIC (Klebsiella pneumoniae [6]): ≤ 0.03 µg/mL

MIC (Staphylococcus aureus [7]): 0.031 µg/mL (≈ 0.0597 µM)
SMILES: COc1ccc2nc(CN3CCN(c4cc5c(cc4F)c(=O)c(C(=O)O)cn5C4CC4)CC3)[nH]c(=O)c2c1

SMILES: CCOC(=O)c1cn(Cc2nc3ccccc3n2Cc2ccc(Cl)cc2Cl)c2cc(Cl)c(F)cc2c1=O
MIC (Staphylococcus aureus [8]): 4 µg/mL (≈ 7.16 µM)
MIC (Klebsiella pneumoniae [9]): 1 µg/mL (≈ 1.79 µM)
MIC (Staphylococcus aureus [10]): 4 µg/mL (≈ 7.16 µM)
MIC (Escherichia coli [11]): 1 µg/mL (≈ 1.79 µM)
MIC (Acinetobacter baumannii): 4 µg/mL (≈ 7.16 µM)
MIC (Staphylococcus aureus [12]): 1 µg/mL (≈ 1.79 µM)
MIC (Pseudomonas aeruginosa [13]): 4 µg/mL (≈ 7.16 µM)
MIC (Staphylococcus aureus [14]): 1 µg/mL (≈ 1.79 µM)

SMILES: Cc1ccc(Oc2ccnc(Nc3ccc4c(=O)c(C(=O)O)cn(C5CC5)c4c3)n2)cc1
MIC (Staphylococcus aureus [15]): ≤ 0.17 µg/mL
MIC (Staphylococcus aureus [16]): ≤ 0.17 µg/mL
MIC (Staphylococcus aureus [17]): ≤ 0.17 µg/mL
MIC (Staphylococcus aureus [18]): ≤ 0.17 µg/mL
MIC (Staphylococcus aureus [19]): ≤ 0.17 µg/mL
MIC (Staphylococcus aureus [20]): ≤ 0.17 µg/mL
MIC (Staphylococcus aureus [21]): ≤ 0.17 µg/mL
MIC (Staphylococcus aureus [22]): ≤ 0.17 µg/mL
MIC (Staphylococcus aureus [23]): ≤ 0.17 µg/mL
MIC (Staphylococcus aureus [24]): ≤ 0.17 µg/mL
MIC (Staphylococcus aureus [25]): ≤ 0.17 µg/mL
MIC (Staphylococcus aureus [26]): ≤ 0.17 µg/mL

MIC (Escherichia coli [27]): 0.24 µg/mL (≈ 0.841 µM)
MIC (Klebsiella pneumoniae [28]): 0.24 µg/mL (≈ 0.841 µM)
MIC (Pseudomonas aeruginosa [29]): 0.24 µg/mL (≈ 0.841 µM)
MIC (Staphylococcus aureus [30]): 0.24 µg/mL (≈ 0.841 µM)
SMILES: Cc1cccc2cc(/C=C3\NC(=S)NC3=O)c(=O)[nH]c12

MIC (Enterobacter cloacae): 0.015 µg/mL (≈ 0.0235 µM)
MIC (Staphylococcus aureus [31]): 0.015 µg/mL (≈ 0.0235 µM)
MIC (Bacillus subtilis): 0.015 µg/mL (≈ 0.0235 µM)
MIC (Escherichia coli [32]): 0.015 µg/mL (≈ 0.0235 µM)
MIC (Klebsiella pneumoniae [33]): 0.015 µg/mL (≈ 0.0235 µM)
MIC [34]: 0.015 µg/mL (≈ 0.0235 µM)
SMILES: CCOC(=O)C(C(=O)OCC)C(=O)c1cn(C2CC2)c2cc(N3CCN(/N=N/c4nc(OC)cc(OC)n4)CC3)c(F)cc2c1=O

MIC (Staphylococcus aureus [35]): 0.53 µg/mL (≈ 0.885 µM)
MIC (Pseudomonas aeruginosa [36]): 0.53 µg/mL (≈ 0.885 µM)
MIC (Escherichia coli [37]): 0.53 µg/mL (≈ 0.885 µM)
MIC (Candida albicans): 2.03 µg/mL (≈ 3.39 µM)
SMILES: O=C(/C=C/c1ccc(F)cc1)c1ccc(NC(=O)N2CCN(c3cc4c(cc3F)c(=O)c(C(=O)O)cn4C3CC3)CC2)cc1

SMILES: CCOP(=O)(OCC)C(NS(=O)(=O)Nc1ccccc1OC)c1cc2cccc(C)c2[nH]c1=O (stereo not given)
MIC (Escherichia coli [38]): 0.125 µg/mL (≈ 0.245 µM)
MIC (Escherichia coli [39]): 0.125 µg/mL (≈ 0.245 µM)
MIC (Staphylococcus aureus [40]): 0.125 µg/mL (≈ 0.245 µM)
MIC (Pseudomonas aeruginosa [41]): 0.125 µg/mL (≈ 0.245 µM)
MIC [42]: 0.125 µg/mL (≈ 0.245 µM)
MIC (Staphylococcus aureus [43]): 0.125 µg/mL (≈ 0.245 µM)
MIC (Pseudomonas aeruginosa [44]): 0.125 µg/mL (≈ 0.245 µM)
MIC (Alternaria): 0.125 µg/mL (≈ 0.245 µM)
